Values of other authors, collected in PMC6959220, “Glycofullerenes as non-receptor tyrosine kinase inhibitors- towards better nanotherapeutics for pancreatic cancer treatment” (Scientific Reports, 2020).

Test system: NHDF
Design: method as in PMID 30562697

Cc1nc(Nc2ncc(C(=O)Nc3c(C)cccc3Cl)s2)cc(N2CCN(CCO)CC2)n1 [Dasatinib, dasatinib]
cytotoxic effects on a normal cell line: cytotoxic effects
